Test system: Amaranthus palmeri
Assay: field test, post-emergence spray, visual injury rating of Palmer amaranth (scale 0 to 100)
Assay type: in vivo
Settings: 3 days after treatment, 0.25% by volume non-ionic surfactant (Induce), 185 liter/ha
Source text: The following examples summarized in table 1 serve to illustrate the invention: • Dicamba was applied as Engenia™ herbicide [BAPMA salt - (bis(3-aminopropyl)methylamine))], while 2,4-DB was applied as the commercially available Butyrac® 200 (dimethylamine salt). Herbicides were applied at an appropriate weight of each product dissolved in 1 liter of water. All herbicide treatments were applied with 0.25% by volume of a non-ionic surfactant (Induce®; an adjuvant composition consisting of alkyl aryl polyoxyalkane ethers, alkanolamides, dimethyl siloxane and free fatty acids). The spray solution was applied by a CO2 powered backpack sprayer delivering the spray solution at a rate of 185 liter/ha. The spray solution was applied to a field naturally populated with Palmer amaranth (Amaranthus palmeri) with an average height of 4-6 inches in height, however, plants both larger and smaller plants were in the field at the time of application as well. Palmer amaranth was assessed for visual injury 3 days after treatment and injury was rated on a scale from 0 to 100, whereby 0 equals no herbicidal response and 100 equals complete control of the Palmer amaranth.

| Compound | herbicidal activity against Amaranthus palmeri (% control) found (Exp. No. 2, 2,4-DB 17.5 g/ha a.i.) | herbicidal activity against Amaranthus palmeri (% control) found (Exp. No. 3, 2,4-DB 35 g/ha a.i.) | herbicidal activity against Amaranthus palmeri (% control) found (Exp. No. 4, 2,4-DB 52.5 g/ha a.i.) | herbicidal activity against Amaranthus palmeri (% control) found (Exp. No. 1, dicamba 420 g/ha a.i.) |
| --- | --- | --- | --- | --- |
| 4-(2,4-dichlorophenoxy)butanoic acid [2,4-DB] | 0% | 5% | 15% | – |
| COc1c(Cl)ccc(Cl)c1C(=O)O [dicamba, 3,6-dichloro-2-methoxybenzoic acid] | – | – | – | 60% |

From EP3135113A1, “USE OF HERBICIDAL COMPOSITIONS FOR CONTROLLING UNWANTED VEGETATION” (BASF SE, priority 2015, dated 2017)
